# Measured values as given in publication PMC6211260 (Journal of Enzyme Inhibition and Medicinal Chemistry, 2018).
# “And” between values parts separate entries of the source, which are not always exact repeats. Identical values can stand only once.
# What was measured:
# [1] = system: SK-MEL-5 melanoma cell line; assay: NCI five-dose testing; type: cell-based; conditions: SK-MEL-5
# Experimental: (§1) Screening against the cancer cell lines was carried out at the National Cancer Institute (NCI, Bethesda, Maryland, USA) applying the standard protocol of the NCI[22].
# [2] = system: U251 CNS cancer cell line; assay: NCI five-dose testing; type: cell-based; conditions: U251
# Experimental: as §1
# [3] = system: HT-29 colon cancer cell line; assay: NCI five-dose testing; type: cell-based; conditions: HT-29
# Experimental: as §1
# [4] = system: A498 renal cancer cell line; assay: NCI five-dose testing; type: cell-based; conditions: A498
# Experimental: as §1
# [5] = system: OVCAR-4 ovarian cancer cell line; assay: NCI five-dose testing; type: cell-based; conditions: OVCAR-4
# Experimental: as §1
# [6] = system: MDA-MB-468 breast cancer cell line; assay: NCI five-dose testing; type: cell-based; conditions: MDA-MB-468
# Experimental: as §1
# [7] = system: K-562 leukaemia cell line; assay: NCI five-dose testing; type: cell-based; conditions: K-562
# Experimental: as §1
# MEK2 = molecular target: T1, MEK2 (Homo sapiens, UniProt P36507); assay: In vitro kinase screening (Kinase HotSpot); type: biochemical; conditions: single dose of 10 µM
# T1 construct: purchased Reaction Biology Corp
# From the text: (§2) To investigate the biological target of compound, Reaction Biology Corp. Kinase HotSpotSM service was used adopting standard assay protocol.
# FMS = molecular target: T2, FMS (Homo sapiens, UniProt P07333); assay: In vitro kinase screening (Kinase HotSpot); type: biochemical; conditions: single dose of 10 µM
# T2 construct: purchased Reaction Biology Corp
# From the text: as §2
# mTOR/FRAP1 = molecular target: T3, mTOR/FRAP1 (Homo sapiens, UniProt P42345); assay: In vitro kinase screening (Kinase HotSpot); type: biochemical; conditions: single dose of 10 µM
# T3 construct: purchased Reaction Biology Corp
# From the text: as §2
# ROS/ROS1 = molecular target: T4, ROS/ROS1 (Homo sapiens, UniProt P08922); assay: In vitro kinase screening (Kinase HotSpot); type: biochemical; conditions: single dose of 10 µM
# T4 construct: purchased Reaction Biology Corp
# T4 sequence (P08922 28-2347): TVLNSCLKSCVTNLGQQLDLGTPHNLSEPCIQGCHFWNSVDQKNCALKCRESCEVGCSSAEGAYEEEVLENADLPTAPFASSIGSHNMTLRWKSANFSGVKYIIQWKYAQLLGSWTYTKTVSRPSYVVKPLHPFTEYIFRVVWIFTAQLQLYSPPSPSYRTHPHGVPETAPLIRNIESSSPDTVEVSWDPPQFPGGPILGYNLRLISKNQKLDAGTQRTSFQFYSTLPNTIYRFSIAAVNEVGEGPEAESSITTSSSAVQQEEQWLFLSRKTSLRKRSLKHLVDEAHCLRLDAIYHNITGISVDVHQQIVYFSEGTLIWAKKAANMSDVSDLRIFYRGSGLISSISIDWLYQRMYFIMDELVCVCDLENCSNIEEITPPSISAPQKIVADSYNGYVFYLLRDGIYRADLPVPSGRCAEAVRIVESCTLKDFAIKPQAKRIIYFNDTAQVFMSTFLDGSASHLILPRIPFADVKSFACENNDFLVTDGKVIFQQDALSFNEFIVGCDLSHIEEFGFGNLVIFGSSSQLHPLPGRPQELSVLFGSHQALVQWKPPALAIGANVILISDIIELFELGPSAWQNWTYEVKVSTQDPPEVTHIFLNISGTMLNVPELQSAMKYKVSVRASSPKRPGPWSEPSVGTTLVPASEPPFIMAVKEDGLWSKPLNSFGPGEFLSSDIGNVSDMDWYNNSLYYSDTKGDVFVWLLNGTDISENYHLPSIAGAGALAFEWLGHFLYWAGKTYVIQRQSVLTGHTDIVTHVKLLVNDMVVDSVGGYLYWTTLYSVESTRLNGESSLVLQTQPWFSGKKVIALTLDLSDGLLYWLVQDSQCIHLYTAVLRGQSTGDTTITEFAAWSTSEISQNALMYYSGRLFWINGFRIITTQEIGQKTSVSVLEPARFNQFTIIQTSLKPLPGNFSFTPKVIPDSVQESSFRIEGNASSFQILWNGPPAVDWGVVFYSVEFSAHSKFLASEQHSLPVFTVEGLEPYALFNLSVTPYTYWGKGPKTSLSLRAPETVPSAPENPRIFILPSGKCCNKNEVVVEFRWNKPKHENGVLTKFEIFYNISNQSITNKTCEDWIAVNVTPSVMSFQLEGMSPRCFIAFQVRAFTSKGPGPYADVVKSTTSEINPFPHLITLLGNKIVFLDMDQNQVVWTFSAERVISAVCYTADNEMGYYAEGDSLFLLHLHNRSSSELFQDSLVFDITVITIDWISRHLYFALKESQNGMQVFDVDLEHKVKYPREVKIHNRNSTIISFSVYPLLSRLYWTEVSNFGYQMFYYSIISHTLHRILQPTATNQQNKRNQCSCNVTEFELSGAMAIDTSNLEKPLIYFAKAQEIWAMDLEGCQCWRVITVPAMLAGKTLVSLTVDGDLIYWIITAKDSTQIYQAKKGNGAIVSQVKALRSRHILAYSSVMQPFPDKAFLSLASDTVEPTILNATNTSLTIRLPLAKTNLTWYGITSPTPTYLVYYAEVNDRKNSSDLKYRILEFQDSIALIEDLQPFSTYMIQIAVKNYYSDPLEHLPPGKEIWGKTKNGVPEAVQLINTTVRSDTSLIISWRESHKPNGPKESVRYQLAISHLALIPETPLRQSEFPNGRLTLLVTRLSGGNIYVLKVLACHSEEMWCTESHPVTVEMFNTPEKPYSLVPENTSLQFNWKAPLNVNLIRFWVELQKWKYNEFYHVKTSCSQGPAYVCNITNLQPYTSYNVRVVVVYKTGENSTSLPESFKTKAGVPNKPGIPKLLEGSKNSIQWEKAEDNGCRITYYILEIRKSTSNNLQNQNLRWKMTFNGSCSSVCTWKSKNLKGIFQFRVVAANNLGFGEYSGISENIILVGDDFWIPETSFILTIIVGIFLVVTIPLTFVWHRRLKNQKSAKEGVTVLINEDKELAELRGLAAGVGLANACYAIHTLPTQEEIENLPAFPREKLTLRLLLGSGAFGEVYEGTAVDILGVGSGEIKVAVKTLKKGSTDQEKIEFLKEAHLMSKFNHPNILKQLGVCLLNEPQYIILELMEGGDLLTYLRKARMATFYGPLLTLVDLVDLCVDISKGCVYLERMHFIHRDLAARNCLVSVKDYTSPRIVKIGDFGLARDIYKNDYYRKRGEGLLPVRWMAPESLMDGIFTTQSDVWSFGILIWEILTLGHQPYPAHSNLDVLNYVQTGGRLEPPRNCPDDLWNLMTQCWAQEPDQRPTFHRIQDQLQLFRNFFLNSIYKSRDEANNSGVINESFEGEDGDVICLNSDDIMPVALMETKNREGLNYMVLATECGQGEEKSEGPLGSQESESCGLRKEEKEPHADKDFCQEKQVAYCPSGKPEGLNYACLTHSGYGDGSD
# From the text: as §2
# GSK3b = molecular target: T5, GSK3b (Homo sapiens, UniProt P49841); assay: In vitro kinase screening (Kinase HotSpot); type: biochemical; conditions: single dose of 10 µM, 10 µM
# T5 construct: purchased Reaction Biology Corp
# From the text: as §2
# MEK1 = molecular target: T6, MEK1 (Homo sapiens, UniProt Q02750); assay: In vitro kinase screening (Kinase HotSpot); type: biochemical; conditions: single dose of 10 µM
# T6 construct: purchased Reaction Biology Corp
# From the text: as §2
# KDR/VEGFR2 = molecular target: T7, KDR/VEGFR2 (Homo sapiens, UniProt P35968); assay: In vitro kinase screening (Kinase HotSpot); type: biochemical; conditions: single dose of 10 µM
# T7 construct: purchased Reaction Biology Corp
# From the text: as §2
# EGFR = molecular target: T8, EGFR (Homo sapiens, UniProt P00533); assay: In vitro kinase screening (Kinase HotSpot); type: biochemical; conditions: single dose of 10 µM
# T8 construct: purchased Reaction Biology Corp
# From the text: as §2
# BRAF (V600E) = molecular target: T9, BRAF (V600E) (Homo sapiens, UniProt P15056, V600E); assay: In vitro kinase screening (Kinase HotSpot); type: biochemical
# T9 construct: purchased Reaction Biology Corp
# T9 sequence (P15056 whole entry V600E): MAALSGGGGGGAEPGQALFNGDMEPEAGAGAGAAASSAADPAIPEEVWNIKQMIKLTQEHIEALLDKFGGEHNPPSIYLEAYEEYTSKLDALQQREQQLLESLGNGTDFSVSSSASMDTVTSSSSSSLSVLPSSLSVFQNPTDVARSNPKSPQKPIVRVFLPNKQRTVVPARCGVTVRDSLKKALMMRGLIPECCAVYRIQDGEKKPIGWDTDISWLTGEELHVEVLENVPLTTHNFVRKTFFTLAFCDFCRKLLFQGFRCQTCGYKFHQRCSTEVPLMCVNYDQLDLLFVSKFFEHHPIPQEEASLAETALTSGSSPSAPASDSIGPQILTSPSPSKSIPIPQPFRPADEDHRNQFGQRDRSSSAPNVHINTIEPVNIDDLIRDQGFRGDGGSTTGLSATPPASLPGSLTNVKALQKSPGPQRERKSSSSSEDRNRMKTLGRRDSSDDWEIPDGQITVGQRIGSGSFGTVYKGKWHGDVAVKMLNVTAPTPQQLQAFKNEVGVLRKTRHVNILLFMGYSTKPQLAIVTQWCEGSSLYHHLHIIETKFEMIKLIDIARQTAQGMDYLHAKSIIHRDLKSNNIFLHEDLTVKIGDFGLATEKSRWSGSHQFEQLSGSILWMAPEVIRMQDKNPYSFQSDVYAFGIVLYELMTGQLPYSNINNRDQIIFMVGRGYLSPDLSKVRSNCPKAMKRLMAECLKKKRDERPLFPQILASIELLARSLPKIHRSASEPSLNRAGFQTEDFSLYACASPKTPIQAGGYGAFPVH
# From the text: as §2
# ABL1 (T315I) = molecular target: T10, ABL1 (T315I) (Homo sapiens, UniProt P00519, T315I); assay: In vitro kinase screening (Kinase HotSpot); type: biochemical; conditions: single dose of 10 µM
# T10 construct: purchased Reaction Biology Corp
# From the text: as §2
# RAF1 = molecular target: T11, RAF1 (Homo sapiens, UniProt P04049); assay: In vitro kinase screening (Kinase HotSpot); type: biochemical
# T11 construct: purchased Reaction Biology Corp
# From the text: as §2
# ERK2/MAPK1 = molecular target: T12, ERK2/MAPK1 (Homo sapiens, UniProt P28482); assay: In vitro kinase screening (Kinase HotSpot); type: biochemical; conditions: single dose of 10 µM
# T12 construct: purchased Reaction Biology Corp
# From the text: as §2
# CDK2/cyclin E = molecular target: T13, CDK2/cyclin E (Homo sapiens, UniProt P24941); assay: In vitro kinase screening (Kinase HotSpot); type: biochemical; conditions: single dose of 10 µM
# T13 construct: purchased Reaction Biology Corp
# From the text: as §2
# JNK1 = molecular target: T14, JNK1 (Homo sapiens, UniProt P45983); assay: In vitro kinase screening (Kinase HotSpot); type: biochemical
# T14 construct: purchased Reaction Biology Corp
# T14 sequence (P45983 whole entry): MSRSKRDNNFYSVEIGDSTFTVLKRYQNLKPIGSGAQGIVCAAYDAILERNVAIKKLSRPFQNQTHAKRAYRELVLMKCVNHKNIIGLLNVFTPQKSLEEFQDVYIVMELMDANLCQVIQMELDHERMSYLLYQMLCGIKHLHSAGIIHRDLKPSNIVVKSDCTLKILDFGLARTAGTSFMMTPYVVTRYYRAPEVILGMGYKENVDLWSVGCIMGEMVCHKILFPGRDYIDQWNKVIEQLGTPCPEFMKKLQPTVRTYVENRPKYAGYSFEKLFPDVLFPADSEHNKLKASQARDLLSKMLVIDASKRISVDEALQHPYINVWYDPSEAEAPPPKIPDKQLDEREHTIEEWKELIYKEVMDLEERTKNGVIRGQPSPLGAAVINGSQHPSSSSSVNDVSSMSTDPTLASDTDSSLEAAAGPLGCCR
# From the text: as §2
# ERK1 = molecular target: T15, ERK1 (Homo sapiens, UniProt P27361); assay: In vitro kinase screening (Kinase HotSpot); type: biochemical; conditions: single dose of 10 µM
# T15 construct: purchased Reaction Biology Corp
# From the text: as §2
# P38a/MAPK14 = molecular target: T16, P38a/MAPK14 (Homo sapiens, UniProt Q16539); assay: In vitro kinase screening (Kinase HotSpot); type: biochemical
# T16 construct: purchased Reaction Biology Corp
# T16 sequence (Q16539 whole entry): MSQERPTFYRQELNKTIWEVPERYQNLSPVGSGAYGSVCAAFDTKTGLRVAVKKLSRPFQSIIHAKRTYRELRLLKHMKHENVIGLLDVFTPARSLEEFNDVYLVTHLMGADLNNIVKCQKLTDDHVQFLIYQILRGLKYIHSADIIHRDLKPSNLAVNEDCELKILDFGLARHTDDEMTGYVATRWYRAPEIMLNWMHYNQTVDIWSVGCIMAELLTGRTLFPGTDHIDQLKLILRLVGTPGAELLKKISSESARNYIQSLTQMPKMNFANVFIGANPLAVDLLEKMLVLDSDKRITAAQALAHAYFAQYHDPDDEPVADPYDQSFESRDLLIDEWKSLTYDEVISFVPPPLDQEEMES
# From the text: as §2
# MKK6 = molecular target: T17, MKK6 (Homo sapiens, UniProt P52564); assay: In vitro kinase screening (Kinase HotSpot); type: biochemical; conditions: single dose of 10 µM
# T17 construct: purchased Reaction Biology Corp
# From the text: as §2
# IKKb/IKBKB = molecular target: T18, IKKb/IKBKB (Homo sapiens, UniProt O14920); assay: In vitro kinase screening (Kinase HotSpot); type: biochemical; conditions: single dose of 10 µM
# T18 construct: purchased Reaction Biology Corp
# T18 sequence (O14920 1-756): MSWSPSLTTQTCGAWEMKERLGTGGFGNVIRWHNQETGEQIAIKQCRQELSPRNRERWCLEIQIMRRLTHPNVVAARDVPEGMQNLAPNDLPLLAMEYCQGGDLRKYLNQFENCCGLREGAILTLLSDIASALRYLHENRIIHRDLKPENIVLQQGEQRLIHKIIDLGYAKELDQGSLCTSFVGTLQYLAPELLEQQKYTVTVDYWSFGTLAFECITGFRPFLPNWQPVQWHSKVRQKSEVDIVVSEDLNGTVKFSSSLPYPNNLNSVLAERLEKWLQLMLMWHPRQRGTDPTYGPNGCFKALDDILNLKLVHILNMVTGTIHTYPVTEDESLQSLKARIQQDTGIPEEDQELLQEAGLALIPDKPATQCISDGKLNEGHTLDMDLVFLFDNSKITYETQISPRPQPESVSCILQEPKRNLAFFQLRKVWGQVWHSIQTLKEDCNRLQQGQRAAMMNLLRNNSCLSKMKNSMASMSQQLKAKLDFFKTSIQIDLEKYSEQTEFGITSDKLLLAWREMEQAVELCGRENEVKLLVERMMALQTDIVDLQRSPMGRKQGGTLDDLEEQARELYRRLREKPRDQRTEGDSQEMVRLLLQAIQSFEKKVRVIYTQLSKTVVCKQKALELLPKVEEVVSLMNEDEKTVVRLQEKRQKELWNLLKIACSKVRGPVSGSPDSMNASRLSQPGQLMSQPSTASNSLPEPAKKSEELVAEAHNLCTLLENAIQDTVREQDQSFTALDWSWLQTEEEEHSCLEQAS
# From the text: as §2
# JNK3 = molecular target: T19, JNK3 (Homo sapiens, UniProt P53779); assay: In vitro kinase screening (Kinase HotSpot); type: biochemical; conditions: single dose of 10 µM
# T19 construct: purchased Reaction Biology Corp
# T19 sequence (P53779 whole entry): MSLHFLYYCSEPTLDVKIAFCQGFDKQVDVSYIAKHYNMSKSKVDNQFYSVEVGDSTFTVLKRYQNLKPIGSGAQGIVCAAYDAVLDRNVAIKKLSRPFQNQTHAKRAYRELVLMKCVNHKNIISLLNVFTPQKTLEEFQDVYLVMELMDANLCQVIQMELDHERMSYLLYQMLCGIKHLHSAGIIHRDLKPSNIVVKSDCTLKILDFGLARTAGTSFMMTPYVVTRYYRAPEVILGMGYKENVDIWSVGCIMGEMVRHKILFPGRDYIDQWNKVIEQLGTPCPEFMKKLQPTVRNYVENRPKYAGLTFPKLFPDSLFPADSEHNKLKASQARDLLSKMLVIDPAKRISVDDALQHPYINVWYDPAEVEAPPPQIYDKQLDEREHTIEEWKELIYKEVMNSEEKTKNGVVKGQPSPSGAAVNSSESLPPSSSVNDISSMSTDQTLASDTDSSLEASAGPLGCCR
# From the text: as §2
# JNK2 = molecular target: T20, JNK2 (Homo sapiens, UniProt P45984); assay: In vitro kinase screening (Kinase HotSpot); type: biochemical
# T20 construct: purchased Reaction Biology Corp
# T20 sequence (P45984 whole entry): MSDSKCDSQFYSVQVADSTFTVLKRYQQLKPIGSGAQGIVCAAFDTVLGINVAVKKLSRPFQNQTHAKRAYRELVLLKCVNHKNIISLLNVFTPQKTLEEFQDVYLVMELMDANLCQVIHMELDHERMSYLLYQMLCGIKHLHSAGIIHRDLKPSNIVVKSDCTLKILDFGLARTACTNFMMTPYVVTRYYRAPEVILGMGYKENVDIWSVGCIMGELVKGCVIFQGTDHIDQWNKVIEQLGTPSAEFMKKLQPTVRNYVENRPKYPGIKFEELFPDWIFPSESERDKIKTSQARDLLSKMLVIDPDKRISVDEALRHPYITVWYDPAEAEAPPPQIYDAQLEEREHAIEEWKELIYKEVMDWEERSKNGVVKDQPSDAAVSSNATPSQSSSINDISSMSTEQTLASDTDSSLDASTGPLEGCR
# From the text: as §2
# BRAF = molecular target: T21, BRAF (Homo sapiens, UniProt P15056); assay: In vitro kinase screening (Kinase HotSpot); type: biochemical
# T21 construct: purchased Reaction Biology Corp
# T21 sequence (P15056 whole entry): as the sequence (P15056 whole entry V600E) above, with E600V counted along it
# From the text: as §2
# [8] = read-out: TGI (total growth inhibition concentration)
smiles,measurement,setting,value
"O=S(=O)(NCCCNc1cc(-c2cn(-c3ccccc3)nc2-c2cccc(O)c2)ccn1)c1ccc(Cl)cc1 [Compound 2l, 4-Chloro-N-(3-((4-(3-(3-hydroxyphenyl)-1-phenyl-1H-pyrazol-4-yl)pyridin-2-yl)amino)propyl) benzenesulfonamide]",IC50,[1],1230 nM
same,LD50 (lethal dose 50),[1],5.3 µM
same,IC (TGI),[1]; [8],2500 nM
same,LD50 (lethal dose 50),[2],8.8 µM
same,IC50,[2]; read-out: IC50,1350 nM
same,IC (TGI),[2]; [8],3400 nM
same,LD50 (lethal dose 50),[3],4.7 µM
same,IC50,[3]; read-out: IC50,470 nM
same,IC (TGI),[3]; [8],1700 nM
same,IC50,[4],330 nM
same,LD50 (lethal dose 50),[4],6.9 µM
same,IC (TGI),[4]; [8],2200 nM
same,IC50,[5],1670 nM
same,LD50 (lethal dose 50),[5],>100 µM
same,IC (TGI),[5]; [8],5900 nM
same,IC50,[6],1160 nM
same,LD50 (lethal dose 50),[6],>100 µM
same,IC (TGI),[6]; [8],4600 nM
same,IC50,[7],430 nM
same,LD50 (lethal dose 50),[7],>100 µM
same,IC (TGI),[7]; [8],2500 nM
same,Inhibition %,MEK2,11.73 ± 1.60%
same,Inhibition %,FMS,24.24 ± 1.14%
same,Inhibition %,mTOR/FRAP1,0.72 ± 0.32%
same,Inhibition %,ROS/ROS1,24.03 ± 0.51%
same,Inhibition %,GSK3b,75.45 ± 0.28%
same,Inhibition %,MEK1,0.56 ± 1.08%
same,Inhibition %,KDR/VEGFR2,10.05 ± 0.10%
same,Inhibition %,EGFR,11.74 ± 4.78%
same,IC50,BRAF (V600E); BRAF(V600E),1160 ± 40 nM
same,Inhibition %,"BRAF (V600E); single dose of 10 µM, BRAF (V599E) in Table 6, BRAF (V600E) in text",93.67 ± 0.47%
same,Inhibition %,ABL1 (T315I),–10.98 ± 0.40%
same,IC50,RAF1,3520 ± 10 nM
same,Inhibition %,ERK2/MAPK1,22.21 ± 0.41%
same,Inhibition %,CDK2/cyclin E,22.92 ± 1.14%
same,IC50,JNK1,350 ± 40 nM
same,Inhibition %,"JNK1; single dose of 10 µM, 10 µM",99.02% and 99.05 ± 0.03%
same,Inhibition %,ERK1,13.07 ± 0.93%
same,IC50,P38a/MAPK14; MAPK14,1130 ± 90 nM
same,Inhibition %,"P38a/MAPK14; single dose of 10 µM, P38a/MAPK14",86.54 ± 0.61%
same,Inhibition %,MKK6,16.65 ± 0.11%
same,Inhibition %,IKKb/IKBKB,−2.94 ± 0.17%
same,Inhibition %,JNK3,89.50 ± 0.03%
same,IC50,JNK2,360 ± 70 nM
same,Inhibition %,"JNK2; single dose of 10 µM, 10 µM",98.47% and 98.49 ± 0.02%
same,IC50,BRAF,4870 ± 70 nM
same,Inhibition %,BRAF; single dose of 10 µM,72.56 ± 0.27%
